IC50 and Ki data for 10 compounds are collected here from ChEMBL document CHEMBL1909046, “DrugMatrix in vitro pharmacology data”.

Data set [1] is described as follows: DRUGMATRIX: Purinergic P2X radioligand binding (ligand: [3H] alpha, beta-Methylene-ATP). The data set is classed as cell membranes, Oryctolagus cuniculus, New Zealand albino, Urinary bladder, Membrane. The note with it: Not Active = under 50% inhibition at 10 µM.
The next data set has as its target Acetylcholinesterase (Homo sapiens, UniProt P22303). Description: DRUGMATRIX: Acetylcholinesterase enzyme inhibition (substrate: acetylthiocholine). Type of data set: cell-based, HEK293. The note with it: Not Active = under 50% inhibition at 10 µM.
For the next data set, the target named is T1, B2 bradykinin receptor (Homo sapiens, UniProt P30411). Further: in other assays of this panel Not Active means under 50% inhibition at 10 µM.
T1 sequence (P30411 whole entry): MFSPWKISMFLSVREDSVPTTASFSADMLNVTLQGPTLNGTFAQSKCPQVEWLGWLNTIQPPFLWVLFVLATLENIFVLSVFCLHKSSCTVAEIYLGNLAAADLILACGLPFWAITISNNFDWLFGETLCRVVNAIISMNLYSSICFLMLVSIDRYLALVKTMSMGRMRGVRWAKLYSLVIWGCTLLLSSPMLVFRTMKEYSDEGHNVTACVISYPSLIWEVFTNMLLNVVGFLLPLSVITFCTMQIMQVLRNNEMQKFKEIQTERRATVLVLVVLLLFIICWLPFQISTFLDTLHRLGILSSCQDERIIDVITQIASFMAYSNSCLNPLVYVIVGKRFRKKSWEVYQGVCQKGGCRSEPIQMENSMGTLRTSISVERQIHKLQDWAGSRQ
The data set is classed as cell membranes, Membrane. The note with it: chem-1.

Data set [2] is described as follows: DRUGMATRIX: Serotonin (5-Hydroxytryptamine) 5-HT3 radioligand binding (ligand: [3H] GR-65630). The data set is classed as cell membranes, Membrane. The note with it: hek293; Not Active = under 50% inhibition at 10 µM.
Data set [3] has as its target T2, Muscarinic acetylcholine receptor M5 (Homo sapiens, UniProt P08912). Further: in other assays of this panel Not Active means under 50% inhibition at 10 µM.
T2 sequence (P08912 whole entry): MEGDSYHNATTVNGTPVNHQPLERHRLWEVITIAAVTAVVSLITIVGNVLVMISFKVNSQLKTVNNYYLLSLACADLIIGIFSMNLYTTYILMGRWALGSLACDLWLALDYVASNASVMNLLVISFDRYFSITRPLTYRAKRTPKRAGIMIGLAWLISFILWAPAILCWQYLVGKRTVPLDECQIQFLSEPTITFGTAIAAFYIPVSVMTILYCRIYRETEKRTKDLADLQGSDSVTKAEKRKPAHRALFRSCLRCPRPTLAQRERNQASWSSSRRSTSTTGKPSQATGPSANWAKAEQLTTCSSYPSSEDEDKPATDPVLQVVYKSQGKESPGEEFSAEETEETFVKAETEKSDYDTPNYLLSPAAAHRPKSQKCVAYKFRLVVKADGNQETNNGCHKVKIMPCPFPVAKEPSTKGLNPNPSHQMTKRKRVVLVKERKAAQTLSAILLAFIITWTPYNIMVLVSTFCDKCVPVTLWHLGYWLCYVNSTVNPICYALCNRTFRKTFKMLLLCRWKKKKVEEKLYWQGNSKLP
The data set is classed as cell membranes, Membrane. To be noted: cho-k1.

The nature of data set [4]: DRUGMATRIX: GABAA, Muscimol, Central radioligand binding (ligand: [3H] Muscimol). Type of data set: cell membranes, Rattus norvegicus, Wistar, Brain, Membrane. The note with it: Not Active = under 50% inhibition at 10 µM.
The target in data set [5] is T3, Nitric oxide synthase, inducible (Mus musculus, UniProt P29477).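 Further: inhibition of iNOS enzyme activity measured with L-arginine as substrate; in other assays of this panel Not Active means under 50% inhibition at 10 µM.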
T3 sequence (P29477 whole entry): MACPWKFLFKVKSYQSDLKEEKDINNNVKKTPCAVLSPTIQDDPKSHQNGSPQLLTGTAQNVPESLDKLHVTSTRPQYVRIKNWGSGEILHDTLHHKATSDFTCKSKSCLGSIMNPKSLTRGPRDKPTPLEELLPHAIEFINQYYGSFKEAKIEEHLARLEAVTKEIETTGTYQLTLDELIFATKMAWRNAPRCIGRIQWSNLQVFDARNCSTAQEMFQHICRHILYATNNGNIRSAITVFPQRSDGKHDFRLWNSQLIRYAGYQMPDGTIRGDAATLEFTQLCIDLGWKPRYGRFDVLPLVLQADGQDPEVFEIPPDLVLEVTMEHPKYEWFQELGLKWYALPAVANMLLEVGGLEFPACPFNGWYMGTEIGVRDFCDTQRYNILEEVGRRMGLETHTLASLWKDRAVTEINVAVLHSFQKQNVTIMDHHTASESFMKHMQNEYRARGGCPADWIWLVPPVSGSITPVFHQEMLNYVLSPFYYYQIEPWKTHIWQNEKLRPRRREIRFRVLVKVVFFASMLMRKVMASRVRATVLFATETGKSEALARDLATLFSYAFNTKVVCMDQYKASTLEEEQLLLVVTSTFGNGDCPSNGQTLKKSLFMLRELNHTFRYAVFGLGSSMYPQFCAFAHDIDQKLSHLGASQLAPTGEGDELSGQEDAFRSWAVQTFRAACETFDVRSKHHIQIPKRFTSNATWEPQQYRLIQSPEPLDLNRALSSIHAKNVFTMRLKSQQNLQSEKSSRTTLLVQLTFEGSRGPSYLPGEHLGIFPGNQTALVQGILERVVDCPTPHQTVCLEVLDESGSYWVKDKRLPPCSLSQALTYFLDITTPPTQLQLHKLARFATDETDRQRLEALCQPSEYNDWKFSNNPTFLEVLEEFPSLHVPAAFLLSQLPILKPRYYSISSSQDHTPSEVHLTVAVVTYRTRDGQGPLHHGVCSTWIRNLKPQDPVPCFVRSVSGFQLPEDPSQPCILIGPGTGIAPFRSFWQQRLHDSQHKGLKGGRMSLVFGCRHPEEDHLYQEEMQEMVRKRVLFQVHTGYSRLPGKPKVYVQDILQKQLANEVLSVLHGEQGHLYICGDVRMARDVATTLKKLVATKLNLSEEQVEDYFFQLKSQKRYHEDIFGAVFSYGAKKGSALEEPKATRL
Further details: species or system Escherichia coli.

For a further data set, the target named is T4, Cytochrome P450 1A2 (Homo sapiens, UniProt P05177). Further: in other assays of this panel Not Active means under 50% inhibition at 10 µM.
T4 sequence (P05177 whole entry): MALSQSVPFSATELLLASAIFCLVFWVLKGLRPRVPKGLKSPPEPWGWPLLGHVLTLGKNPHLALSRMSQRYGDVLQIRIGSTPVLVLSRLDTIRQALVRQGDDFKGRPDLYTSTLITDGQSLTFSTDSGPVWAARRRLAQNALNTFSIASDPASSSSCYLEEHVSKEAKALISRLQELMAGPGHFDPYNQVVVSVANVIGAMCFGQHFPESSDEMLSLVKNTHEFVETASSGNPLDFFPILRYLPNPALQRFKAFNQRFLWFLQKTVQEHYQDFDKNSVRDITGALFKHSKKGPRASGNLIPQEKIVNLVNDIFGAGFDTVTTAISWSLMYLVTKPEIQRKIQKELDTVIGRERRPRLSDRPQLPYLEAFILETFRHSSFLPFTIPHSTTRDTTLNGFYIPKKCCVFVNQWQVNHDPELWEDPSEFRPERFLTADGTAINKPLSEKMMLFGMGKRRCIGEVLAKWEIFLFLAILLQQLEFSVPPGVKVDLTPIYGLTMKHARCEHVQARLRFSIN
The note with it: bti-tn-5b1-4.

Sequence of Acetylcholinesterase (P22303 whole entry): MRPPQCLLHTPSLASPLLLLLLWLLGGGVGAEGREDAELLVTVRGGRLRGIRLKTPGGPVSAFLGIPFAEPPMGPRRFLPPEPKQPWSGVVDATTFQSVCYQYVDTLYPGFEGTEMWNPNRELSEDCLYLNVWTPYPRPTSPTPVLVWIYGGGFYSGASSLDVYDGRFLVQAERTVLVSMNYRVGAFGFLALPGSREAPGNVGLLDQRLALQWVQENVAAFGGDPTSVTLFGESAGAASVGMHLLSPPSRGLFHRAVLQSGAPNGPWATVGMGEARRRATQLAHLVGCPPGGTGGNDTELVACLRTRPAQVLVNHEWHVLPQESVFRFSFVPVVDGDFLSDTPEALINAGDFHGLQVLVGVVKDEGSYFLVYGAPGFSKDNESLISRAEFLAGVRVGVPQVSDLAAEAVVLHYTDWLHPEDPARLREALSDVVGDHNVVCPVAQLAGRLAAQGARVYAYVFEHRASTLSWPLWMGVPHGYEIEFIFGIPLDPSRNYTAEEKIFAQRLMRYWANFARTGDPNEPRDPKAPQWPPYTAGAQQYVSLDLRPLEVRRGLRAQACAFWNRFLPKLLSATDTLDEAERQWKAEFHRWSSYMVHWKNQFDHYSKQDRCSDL

As a reminder, the IC50 is the concentration that gives 50% inhibition. With `Nn1nnc2ccccc21`, the IC50 entry (in data set [1]; against Acetylcholinesterase (hek293); against B2 bradykinin receptor; in data set [2]; in data set [3]; in data set [4]) was “Not Active” throughout. The IC50 result (in data set [5]; against Cytochrome P450 1A2) was “Not Active” each time. Further, the Ki entry (in data set [1]; in data set [2]; in data set [4]; on Cytochrome P450 1A2) was “Not Active” throughout.

Take `CC[C@]1(O)CC[C@H]2[C@@H]3CCC4=CCCC[C@@H]4[C@H]3CC[C@@]21C`: the IC50 entry in data set [1] is “Not Active”; on Acetylcholinesterase (read-out: IC50), 6.5 µM; against B2 bradykinin receptor, “Not Active”; in data set [2], “Not Active”; in data set [3] it was “Not Active”; in data set [4], “Not Active”. Also, the IC50 entry (in data set [5]; at Cytochrome P450 1A2) was “Not Active” in each case. Besides, the Ki entry (in data set [1]; in data set [2]; in data set [4]; at Cytochrome P450 1A2) was “Not Active” in each case.

In the case of `CCOC(=O)[C@H](CCc1ccccc1)N[C@@H](C)C(=O)N1Cc2ccccc2C[C@H]1C(=O)O`, the IC50 result (in data set [1]; against Acetylcholinesterase (hek293); on B2 bradykinin receptor; in data set [2]; in data set [3]; in data set [4]) was “Not Active” each time. Further, the IC50 result (in data set [5]; at Cytochrome P450 1A2) was “Not Active” in each case. For the same compound, the Ki result (in data set [1]; in data set [2]; in data set [4]; on Cytochrome P450 1A2) was “Not Active” throughout.

`O=C(c1ccccc1Cl)N1CCC(Cc2ccccc2)CC1`: the half-inhibitory concentration (IC50) entry (in data set [1]; against Acetylcholinesterase (hek293); against B2 bradykinin receptor; in data set [2]; in data set [3]; in data set [4]) was “Not Active” each time. In addition, the half-maximal inhibitory concentration (IC50) result (in data set [5]; against Cytochrome P450 1A2) was “Not Active” in each case. Further, the Ki result (in data set [1]; in data set [2]; in data set [4]; at Cytochrome P450 1A2) was “Not Active” throughout.

In the case of `CCOC(=O)[C@H](CCc1ccccc1)N[C@@H](C)C(=O)N1CCC[C@H]1C(=O)O`, the IC50 entry (in data set [1]; on Acetylcholinesterase (hek293); against B2 bradykinin receptor; in data set [2]; in data set [3]; in data set [4]) was “Not Active” in each case. In addition, the IC50 entry (in data set [5]; against Cytochrome P450 1A2) was “Not Active” throughout. The Ki entry (in data set [1]; in data set [2]; in data set [4]; on Cytochrome P450 1A2) was “Not Active” throughout.

Consider `Clc1cc2c(cc1Cl)Oc1cc(Cl)c(Cl)cc1O2` [2,3,7,8-TETRACHLORODIBENZO-P-DIOXIN], for which the 50% inhibitory concentration (IC50) result (in data set [1]; at Acetylcholinesterase (hek293); at B2 bradykinin receptor; in data set [2]; in data set [3]; in data set [4]) was “Not Active” each time. The IC50 entry (in data set [5]; at Cytochrome P450 1A2) was “Not Active” each time. Besides, the Ki result (in data set [1]; in data set [2]; in data set [4]; on Cytochrome P450 1A2) was “Not Active” throughout.

On to `C=C1/C(=C\C=C2/CCC[C@]3(C)[C@@H]([C@H](C)CCCC(C)C)CC[C@@H]23)C[C@@H](O)C[C@@H]1O` [ALFACALCIDOL], for which the IC50 result (in data set [1]; at Acetylcholinesterase (hek293); on B2 bradykinin receptor; in data set [2]; in data set [3]; in data set [4]) was “Not Active” in each case. The IC50 result (in data set [5]; against Cytochrome P450 1A2) was “Not Active” throughout. Moreover, the Ki entry (in data set [1]; in data set [2]; in data set [4]; on Cytochrome P450 1A2) was “Not Active” each time.

In the case of `CCCCCC[C@H]1C(=O)O[C@H](C)[C@H](NC(=O)c2cccc(NC=O)c2O)C(=O)O[C@@H](C)[C@@H]1OC(=O)CC(C)C` [ANTIMYCIN A], the IC50 entry (in data set [1]; at Acetylcholinesterase (hek293); on B2 bradykinin receptor; in data set [2]; in data set [3]; in data set [4]) was “Not Active” in each case. Further, the IC50 entry (in data set [5]; against Cytochrome P450 1A2) was “Not Active” each time. In addition, the Ki result (in data set [1]; in data set [2]; in data set [4]; on Cytochrome P450 1A2) was “Not Active” throughout.

With `CO[C@H]1[C@@H](O)[C@H](N)[C@@H](O[C@H]2O[C@H]([C@H](C)N)CC[C@H]2N)[C@H](O)[C@@H]1N(C)C(=O)CN` [ASTROMICIN], the IC50 entry (in data set [1]; against Acetylcholinesterase (hek293); against B2 bradykinin receptor; in data set [2]; in data set [3]; in data set [4]) was “Not Active” throughout. Further, the IC50 entry (in data set [5]; against Cytochrome P450 1A2) was “Not Active” throughout. The Ki result (in data set [1]; in data set [2]; in data set [4]; on Cytochrome P450 1A2) was “Not Active” in each case.

For the compound `[N-]=[N+]=CC(=O)OC[C@H](N)C(=O)O` [AZASERINE], the IC50 entry (in data set [1]; on Acetylcholinesterase (hek293); against B2 bradykinin receptor; in data set [2]; in data set [3]; in data set [4]) was “Not Active” in each case. For the same compound, the IC50 entry (in data set [5]; at Cytochrome P450 1A2) was “Not Active” in each case. For the same compound, the Ki entry (in data set [1]; in data set [2]; in data set [4]; at Cytochrome P450 1A2) was “Not Active” throughout.
